# From patent US10251394B2, “Molecules having pesticidal utility, and intermediates, compositions, and processes, related thereto” (Dow AgroSciences LLC, priority 2016, dated 2019)
# Key:
# [1] = system: Beet Armyworm (Spodoptera exigua); test: Bioassay on Beet Armyworm (BAW), 128-well diet tray assay; assay type: in vivo; settings: for mortality at 0.05 µg/cm2 / mortality at 0.5 µg/cm2 / mortality at 5 µg/cm2: 168 h, second instar larvae, five to seven days, read-out: BAW Percent control (or mortality); for mortality at 0.05 µg/cm2: 0.05 μg/cm^2 on artificial diet; for mortality at 0.5 µg/cm2: 0.5 μg/cm^2 on artificial diet; for mortality at 5 µg/cm2: 5 μg/cm^2 on artificial diet; for pest or weed control at 50 µg/cm2: Beet Armyworm, Table ABC, read-out: BAW rating
# Method: (§1) Example A: Bioassays on Beet Armyworm (Spodoptera Exigua, LAPHEG) (“BAW”), Corn Earworm (Helicoverpa Zea, HELIZE) (“CEW”), and Cabbage Looper (Trichoplusia Ni, TRIPNI) (“CL”)
# (§2) Certain molecules disclosed in this document were tested against BAW, CEW, and CL using procedures described in the following examples. In the reporting of the results, the “BAW, CEW, & CL Rating Table” was used (See Table Section).
# Bioassays on BAW were conducted using a 128-well diet tray assay. One to five second instar BAW larvae were placed in each well (3 mL) of the diet tray that had been previously filled with 1 mL of artificial diet to which 50 μg/cm^2 of the test molecule (dissolved in 50 μL of 90:10 acetone-water mixture) had been applied (to each of eight wells) and then allowed to dry. Trays were covered with a clear self-adhesive cover and held at 25° C., 14:10 light-dark for five to seven days. Percent mortality was recorded for the larvae in each well; activity in the eight wells was then averaged. The results are indicated in the table entitled “Table ABC: Biological Results” (See Table Section).
# (§3) Bioassays on BAW and CL were conducted according to the procedures outlined in Example A: Bioassays on Beet Armyworm (“BAW”) and Cabbage Looper (“CL”) using the indicated concentrations.
# [2] = system: Cabbage Looper (Trichoplusia ni); test: Bioassay on Cabbage Looper (CL), 128-well diet tray assay; assay type: in vivo; settings: for mortality at 0.05 µg/cm2 / mortality at 0.5 µg/cm2 / mortality at 5 µg/cm2: 168 h, second instar larvae, five to seven days, read-out: CL Percent control (or mortality); for mortality at 0.05 µg/cm2: 0.05 μg/cm^2 on artificial diet; for mortality at 0.5 µg/cm2: 0.5 μg/cm^2 on artificial diet; for mortality at 5 µg/cm2: 5 μg/cm^2 on artificial diet; for pest or weed control at 50 µg/cm2: Cabbage Looper, Table ABC, read-out: CL rating
# Method: as §1, §2
# Bioassays on CL were conducted using a 128-well diet tray assay. One to five second instar CL larvae were placed in each well (3 mL) of the diet tray that had been previously filled with 1 mL of artificial diet to which 50 μg/cm^2 of the test molecule (dissolved in 50 μL of 90:10 acetone-water mixture) had been applied (to each of eight wells) and then allowed to dry. Trays were covered with a clear self-adhesive cover and held at 25° C., 14:10 light-dark for five to seven days. Percent mortality was recorded for the larvae in each well; activity in the eight wells was then averaged. The results are indicated in the table entitled “Table ABC: Biological Results” (See Table Section).
# as §3
SMILES,mortality at 0.05 µg/cm2 [1] [%],mortality at 0.5 µg/cm2 [1] [%],mortality at 5 µg/cm2 [1] [%],pest or weed control at 50 µg/cm2 [1] [%],mortality at 0.05 µg/cm2 [2] [%],mortality at 0.5 µg/cm2 [2] [%],mortality at 5 µg/cm2 [2] [%],pest or weed control at 50 µg/cm2 [2] [%]
"O=C(CNC(=O)c1ccc(/C(F)=C/C(c2cc(Cl)c(Cl)c(Cl)c2)C(F)(F)F)cc1C(F)(F)F)NCC(F)(F)F (stereo not drawn) [F1, (Z)—N-(2-oxo-2-((2,2,2-trifluoroethyl)amino)ethyl)-4-(1,4,4,4-tetrafluoro-3-(3,4,5-trichlorophenyl)but-1-en-1-yl)-2-(trifluoromethyl)benzamide]",100,100,100,50 to 100,100,100,100,50 to 100
"C[C@@H](NC(=O)c1ccc(/C(F)=C/C(c2cc(Cl)c(Cl)c(Cl)c2)C(F)(F)F)cc1C(F)(F)F)C(=O)NCC(F)(F)F (stereo partly drawn) [F2, N—((R)-1-Oxo-1-((2,2,2-trifluoroethyl)amino)propan-2-yl)-4-((Z)-1,4,4,4-tetrafluoro-3-(3,4,5-trichlorophenyl)but-1-en-1-yl)-2-(trifluoromethyl)benzamide]",100,100,100,50 to 100,100,100,100,50 to 100
"O=C(NC1(C(=O)NCCC2CC2)CC1)c1ccc(/C(F)=C/C(c2cc(Cl)c(Cl)c(Cl)c2)C(F)(F)F)cc1C(F)(F)F (stereo not drawn) [F4, (Z)—N-(1-((2-cyclopropylethyl)carbamoyl)cyclopropyl)-4-(1,4,4,4-tetrafluoro-3-(3,4,5-trichlorophenyl)but-1-en-1-yl)-2-(trifluoromethyl)benzamide]",,,,50 to 100,,,,50 to 100
"C=CCNC(=O)C1(NC(=O)c2ccc(/C(F)=C/C(c3cc(Cl)c(Cl)c(Cl)c3)C(F)(F)F)cc2C(F)(F)F)CC1 (stereo not drawn) [F5, (Z)—N-(1-(Allylcarbamoyl)cyclopropyl)-4-(1,4,4,4-tetrafluoro-3-(3,4,5-trichlorophenyl)but-1-en-1-yl)-2-(trifluoromethyl)benzamide]",,,,50 to 100,,,,50 to 100
"Cc1cc(/C(F)=C/C(c2cc(Cl)c(Cl)c(Cl)c2)C(F)(F)F)ccc1C(=O)NCC(=O)NCC(F)(F)F (stereo not drawn) [F6, (Z)-2-Methyl-N-(2-oxo-2-((2,2,2-trifluoroethyl)amino)ethyl)-4-(1,4,4,4-tetrafluoro-3-(3,4,5-trichlorophenyl)but-1-en-1-yl)benzamide]",100,100,,50 to 100,100,100,,50 to 100
"Cc1cc(/C(F)=C/C(c2cc(Cl)c(Cl)c(Cl)c2)C(F)(F)F)ccc1C(=O)N[C@H](C)C(=O)NCC(F)(F)F (stereo partly drawn) [F7, 2-Methyl-N—((R)-1-oxo-1-((2,2,2-trifluoroethyl)amino)propan-2-yl)-4-((Z)-1,4,4,4-tetrafluoro-3-(3,4,5-trichlorophenyl)but-1-en-1-yl)benzamide]",100,100,,50 to 100,100,100,,50 to 100
"Cc1cc(/C(F)=C/C(c2cc(Cl)c(Cl)c(Cl)c2)C(F)(F)F)ccc1C(=O)NC1(C(=O)NCC(F)(F)F)CC1 (stereo not drawn) [F8, (Z)-2-Methyl-4-(1,4,4,4-tetrafluoro-3-(3,4,5-trichlorophenyl)but-1-en-1-yl)-N-(1-((2,2,2-trifluoroethyl)carbamoyl)cyclopropyl)benzamide]",,,,50 to 100,,,,50 to 100
"C=CCNC(=O)C1(NC(=O)c2ccc(/C(F)=C/C(c3cc(Cl)c(Cl)c(Cl)c3)C(F)(F)F)cc2C)CC1 (stereo not drawn) [F9, (Z)—N-(1-(Allylcarbamoyl)cyclopropyl)-2-methyl-4-(1,4,4,4-tetrafluoro-3-(3,4,5-trichlorophenyl)but-1-en-1-yl)benzamide]",,,,50 to 100,,,,50 to 100
"Cc1cc(/C(F)=C/C(c2cc(Cl)c(Cl)c(Cl)c2)C(F)(F)F)ccc1C(=O)NC1(C(=O)NCCC2CC2)CC1 (stereo not drawn) [F10, (Z)—N-(1-((2-Cyclopropylethyl)carbamoyl)cyclopropyl)-2-methyl-4-(1,4,4,4-tetrafluoro-3-(3,4,5-trichlorophenyl)but-1-en-1-yl)benzamide]",,,,50 to 100,,,,50 to 100
"C=CCNC(=O)[C@@H](C)NC(=O)c1ccc(/C(F)=C/C(c2cc(Cl)c(Cl)c(Cl)c2)C(F)(F)F)cc1C(F)(F)F (stereo partly drawn) [F11, N—((R)-1-(Allylamino)-1-oxopropan-2-yl)-4-((Z)-1,4,4,4-tetrafluoro-3-(3,4,5-trichlorophenyl)but-1-en-1-yl)-2-(trifluoromethyl)benzamide]",,,,50 to 100,,,,50 to 100
"C[C@@H](NC(=O)c1ccc(/C(F)=C/C(c2cc(Cl)c(Cl)c(Cl)c2)C(F)(F)F)cc1C(F)(F)F)C(=O)NCCC1CC1 (stereo partly drawn) [F12, N—((R)-1-((2-Cyclopropylethyl)amino)-1-oxopropan-2-yl)-4-((Z)-1,4,4,4-tetrafluoro-3-(3,4,5-trichlorophenyl)but-1-en-1-yl)-2-(trifluoromethyl)benzamide]",,,,50 to 100,,,,50 to 100
"C[C@@H](NC(=O)c1ccc(/C(F)=C/C(c2cc(Cl)c(Cl)c(Cl)c2)C(F)(F)F)cc1C(F)(F)F)C(=O)N(C)CC(F)(F)F (stereo partly drawn) [F13, N—((R)-1-(Methyl(2,2,2-trifluoroethyl)amino)-1-oxopropan-2-yl)-4-((Z)-1,4,4,4-tetrafluoro-3-(3,4,5-trichlorophenyl)but-1-en-1-yl)-2-(trifluoromethyl)benzamide]",,,,50 to 100,,,,50 to 100
"C=CCNC(=O)[C@@H](C)NC(=O)c1ccc(/C(F)=C/C(c2cc(Cl)c(Cl)c(Cl)c2)C(F)(F)F)cc1C (stereo partly drawn) [F14, N—((R)-1-(Allylamino)-1-oxopropan-2-yl)-2-methyl-4-((Z)-1,4,4,4-tetrafluoro-3-(3,4,5-trichlorophenyl)but-1-en-1-yl)benzamide]",,,,50 to 100,,,,50 to 100
"Cc1cc(/C(F)=C/C(c2cc(Cl)c(Cl)c(Cl)c2)C(F)(F)F)ccc1C(=O)N[C@H](C)C(=O)NCCC1CC1 (stereo partly drawn) [F15, N—((R)-1-((2-Cyclopropylethyl)amino)-1-oxopropan-2-yl)-2-methyl-4-((Z)-1,4,4,4-tetrafluoro-3-(3,4,5-trichlorophenyl)but-1-en-1-yl)benzamide]",,,,50 to 100,,,,50 to 100
"CCCCNC(=O)[C@@H](C)NC(=O)c1ccc(/C(F)=C/C(c2cc(Cl)c(Cl)c(Cl)c2)C(F)(F)F)cc1C(F)(F)F (stereo partly drawn) [F16, N—((R)-1-(Butylamino)-1-oxopropan-2-yl)-4-((Z)-1,4,4,4-tetrafluoro-3-(3,4,5-trichlorophenyl)but-1-en-1-yl)-2-(trifluoromethyl)benzamide]",,,,50 to 100,,,,50 to 100
"C[C@@H](NC(=O)c1ccc(/C(F)=C\C(c2cc(Cl)c(Cl)c(Cl)c2)C(F)(F)F)cc1C(F)(F)F)C(=O)NCC(F)(F)F (stereo partly drawn) [F17, N—((R)-1-oxo-1-((2,2,2-trifluoroethyl)amino)propan-2-yl)-4-((E)-1,4,4,4-tetrafluoro-3-(3,4,5-trichlorophenyl)but-1-en-1-yl)-2-(trifluoromethyl)benzamide]",,,,50 to 100,,,,50 to 100
"C[C@@H](NC(=O)c1ccc(/C(F)=C/C(c2cc(Cl)c(Cl)c(Cl)c2)C(F)(F)F)cc1Br)C(=O)NCC(F)(F)F (stereo partly drawn) [F18, 2-Bromo-N—((R)-1-oxo-1-((2,2,2-trifluoroethyl)amino)propan-2-yl)-4-((Z)-1,4,4,4-tetrafluoro-3-(3,4,5-trichlorophenyl)but-1-en-1-yl)benzamide]",100,100,100,50 to 100,100,100,100,50 to 100
